Assay results as given in the supplement of paper PMC11451515.

System: NOMO1
Test: cell viability relative to DMSO control; higher = less cytotoxic
Settings: 48 h
Method in brief: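 Cells were incubated for 48 h at 37°C before CellTiter-Glo One luminescence was read. The cells were NOMO1 or SEM (500 cells/well) or P12-Ichikawa (1000 cells/well) leukemia cells, adapted for at least four passages in each medium and seeded in 1536-well plates (5 μl). Dosing used library compounds in DMSO applied by pin over 11 threefold points, 47 μM to 0.79 nM. Viability is the per-plate percentage of DMSO wells, with cell-free wells as background.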

[1] = RPMI 5 mM glucose + 10% FBS, 0.000781 µM
[2] = RPMI 5 mM glucose + 10% FBS, 0.00234 µM
[3] = RPMI 5 mM glucose + 10% FBS, 0.00702 µM
[4] = RPMI 5 mM glucose + 10% FBS, 0.0211 µM
[5] = RPMI 5 mM glucose + 10% FBS, 0.0632 µM
[6] = RPMI 5 mM glucose + 10% FBS, 0.19 µM
[7] = RPMI 5 mM glucose + 10% FBS, 0.569 µM
[8] = RPMI 5 mM glucose + 10% FBS, 1.71 µM
[9] = RPMI 5 mM glucose + 10% FBS, 5.12 µM
[10] = RPMI 5 mM glucose + 10% FBS, 15.4 µM
[11] = RPMI 5 mM glucose + 10% FBS, 46.1 µM
[12] = RPMI 5 mM glucose + 10% dialyzed FBS, 0.000781 µM
[13] = RPMI 5 mM glucose + 10% dialyzed FBS, 0.00234 µM
[14] = RPMI 5 mM glucose + 10% dialyzed FBS, 0.00702 µM
[15] = RPMI 5 mM glucose + 10% dialyzed FBS, 0.0211 µM
[16] = RPMI 5 mM glucose + 10% dialyzed FBS, 0.0632 µM
[17] = RPMI 5 mM glucose + 10% dialyzed FBS, 0.19 µM
[18] = RPMI 5 mM glucose + 10% dialyzed FBS, 0.569 µM
[19] = RPMI 5 mM glucose + 10% dialyzed FBS, 1.71 µM
[20] = RPMI 5 mM glucose + 10% dialyzed FBS, 5.12 µM
[21] = RPMI 5 mM glucose + 10% dialyzed FBS, 15.4 µM
[22] = RPMI 5 mM glucose + 10% dialyzed FBS, 46.1 µM

Row | Compound | cell viability [1] | cell viability [2] | cell viability [3] | cell viability [4] | cell viability [5] | cell viability [6] | cell viability [7] | cell viability [8] | cell viability [9] | cell viability [10] | cell viability [11] | cell viability [12] | cell viability [13] | cell viability [14] | cell viability [15] | cell viability [16] | cell viability [17] | cell viability [18] | cell viability [19] | cell viability [20] | cell viability [21] | cell viability [22]
1 | CC(C)[C@H](C(=O)Nc1ccc(C(=O)NO)cc1)c1ccccc1 | 113% | 108% | 122% | 138% | 119% | 131% | 125% | 118% | 19% | 8.3% | 8.21% | – | – | – | – | – | – | – | – | – | – | –
2 | COc1ccc(-n2c(C)c([N+](=O)[O-])c3ccc(O)cc32)cc1 | 111% | 104% | 113% | 114% | 118% | 126% | 107% | 121% | 98.3% | 119% | 106% | 114% | 120% | 126% | 124% | 123% | 115% | 114% | 102% | 97.5% | 105% | 101%
3 | C[C@H](NC(=O)[C@@H](O)c1cc(F)cc(F)c1)C(=O)N[C@@H]1C(=O)N(C)c2ccccc2-c2ccccc21 | 103% | 115% | 106% | 122% | 109% | 114% | 104% | 86.6% | 97.7% | 101% | 97.3% | 119% | 116% | 119% | 113% | 113% | 105% | 101% | 113% | 102% | 97.3% | 84.5%
4 | Nc1nccc(-c2ccc3noc(-c4ccc(Cl)cc4)c3c2)n1 | 101% | 117% | 103% | 127% | 102% | 111% | 115% | 107% | 108% | 101% | 104% | 121% | 115% | 115% | 120% | 122% | 110% | 127% | 106% | 118% | 116% | 113%
5 | CC(=O)OCC(=O)[C@@]1(O)CC[C@H]2[C@@H]3CCC/4=C/C(=O)/C=C\[C@]4(C)[C@H]3[C@@H](O)C[C@]12C | 131% | 119% | 121% | 119% | 114% | 119% | 120% | 112% | 119% | 106% | 115% | – | – | – | – | – | – | – | – | – | – | –
6 | COc1cc2c(cc1O)CCC1C2CC[C@@]2(C)C1CC[C@@H]2O (some centres undefined) | 117% | 111% | 103% | 110% | 121% | 120% | 111% | 101% | 84.2% | 25.1% | 32.6% | 118% | 129% | 117% | 116% | 121% | 115% | 119% | 115% | 63.8% | 33.9% | 40.4%
7 | Cc1n[nH]c2ccc(-c3cncc(OC[C@@H](N)Cc4ccccc4)c3)cc12 | 127% | 118% | 113% | 125% | 120% | 113% | 110% | 99.7% | 23.6% | 12.9% | 5.8% | 134% | 124% | 120% | 114% | 133% | 83.5% | 109% | 77.9% | 15.1% | 8.65% | 4.35%
8 | C=C1CCC2[C@](C)(CO)C(O)CC[C@]2(C)C1C/C=C1/C(=O)OCC1O (some centres undefined) | 111% | 109% | 115% | 101% | 114% | 113% | 99.3% | 105% | 97.5% | 104% | 98.4% | 121% | 104% | 114% | 110% | 118% | 107% | 105% | 109% | 95.5% | 101% | 96.9%
